One data set deals with human osteoclasts. As to the kind of experiment: Human osteoclast resorption assay. The class given is cell-based. The following applies: for IC50: read-out: Cell-based Human IC50; for inhibition at 1 µM: Homo sapiens, Osteoclast, 48 h, 1 □ M, read-out: Cell-based % Inh. @ 1 □ M Human. How it is done: Bone resorption was studied using a model where human osteoclast precursor cells were cultured on bovine bone slices for 9 days and allowed to differentiate into bone-resorbing osteoclasts. The formed mature osteoclasts were then allowed to resorb bone. The assay was performed by Pharmatest Services Ltd, Itäinen Pitkakatu 4C, Turku, Finland. After the culture period, bone collagen degradation products were quantified from the culture medium as an index of bone resorption. Inhibitor compounds were added into the cell cultures after the differentiation period and their effects on the resorbing activity of mature osteoclasts were determined. The studies included a baseline group without added compounds and a positive control group where a potent cathepsin K inhibitor E-64 was added.
Human peripheral blood monocytes were suspended to culture medium and allowed to attach to bovine bone slices. The bone slices were transferred into 96-well tissue culture plates containing culture medium with appropriate amounts of important growth factors favouring osteoclast differentiation, including M-CSF, RANK-ligand and TGF-[…]. The cells were incubated in a CO2 incubator in humidified atmosphere of 95% air and 5% carbon dioxide at 37° C. At day 7 when osteoclast differentiation was complete, the culture medium was replaced with culture medium containing conditions favouring osteoclast activity. The cell culture was continued for an additional 2 days, during which the formed mature osteoclasts were allowed to resorb bone in the presence of vehicle, control inhibitor (E64) or test compounds. At the end of the culture, bone collagen degradation products released into the culture medium were determined using a commercially available ELISA method (CrossLaps® for culture, Nordic Bioscience, Herlev, Denmark) as an index of bone resorption (see Bagger, Y. Z. et al, J. Bone. Miner. Res. 14 (suppl. 1), S370).

Data set [1] is described as follows: Plasma incubations (human plasma stability). Note: tested at 25 µM. The following applies: 37° C. The class given is in vitro ADME.
Description: Aliquots were removed at 2 and 60 minutes and quenched with an equal volume of cold acetonitrile. After mixing vigorously, the precipitated protein matter was removed by filtration (Multiscreen Solvinert filter plates, Millipore, Bedford, Mass., USA) and the filtrate analysed by reverse phase HPLC with mass spectrometric detection, using single ion monitoring of the [M+H]^+ species. Metabolic turnover was determined by comparison of peak areas from the ion chromatograms of the parent compound at 2 and 60 minutes and expressed as percent remaining at 1 hour.
The next data set has as its target T1, cathepsin K (Homo sapiens, UniProt P43235).
T1 sequence (P43235 115-329): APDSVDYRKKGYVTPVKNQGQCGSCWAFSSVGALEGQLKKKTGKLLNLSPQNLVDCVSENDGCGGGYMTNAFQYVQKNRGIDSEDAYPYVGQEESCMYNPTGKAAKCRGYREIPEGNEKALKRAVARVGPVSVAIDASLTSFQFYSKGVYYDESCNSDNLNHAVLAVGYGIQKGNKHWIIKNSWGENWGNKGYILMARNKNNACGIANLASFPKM
As to the kind of experiment: In vitro cathepsin Ki inhibition measurements. The class given is biochemical. On the set-up: purchased B. Turk, Josef Stefan Institute, Ljubljana, Slovenia. The following applies: human recombinant cathepsin K; read-out: In vitro Ki (nM) vs Cath K. How it is done: Stock solutions of substrate or inhibitor were made up to 10 mM in 100% dimethylsulfoxide (DMSO) (Rathburns, Glasgow, U.K.) and diluted as appropriately required. In all cases the DMSO concentration in the assays was maintained at less than 1% (vol./vol.). The equilibrium inhibition constants (Ki^SS) for each compound were measured under steady-state conditions monitoring enzyme activity as a function of inhibitor concentration. The values were calculated on the assumption of pure competitive behaviour (Cornish-Bowden, A. Fundamentals of enzyme kinetics Portland Press; 1995, 93-128). Human recombinant cathepsin K (0.25 nM final; B. Turk, Josef, Stefan Institute, Ljubljana, Slovenia), was routinely assayed in 100 mM sodium acetate; pH 5.5 containing 1 mM EDTA, 10 mM L-cysteine and 1.8 μM Z-Leu-Arg-AMC ([S]═KM).
The apparent inhibition constant (Ki) for each compound was determined on the basis that inhibition was reversible and occurred by a pure-competitive mechanism. The Ki values were calculated, from the dependence of enzyme activity as a function of inhibitor concentration, by direct regression analysis (Prism v 3.02) using Equation 2 (Cornish-Bowden, A., 1995).
In situations where the apparent dissociation constant (Ki^app) approached the enzyme concentrations, the Ki^app values were calculated using a quadratic solution in the form described by Equation 3 (Morrison, J. F. Trends Biochem. Sci., 7, 102-105, 1982; Morrison, J. F. Biochim. Biophys. Acta, 185, 269-286, 1969; Stone, S. R. and Hofsteenge, J. Biochemistry, 25, 4622-4628, 1986).
Curves were fitted by non-linear regression analysis (Prism) using a fixed value for the enzyme concentration. Equation 4 was used to account for the substrate kinetics, where ‘Ki’ is the inhibition constant, ‘[So]’ is the initial substrate concentration and ‘KM^app’ is the apparent macroscopic binding (Michaelis) constant for the substrate (Morrison, 1982).

The next data set in a line: LogD determinations. The following applies: Ion-count method; for logD at 1 h: 1-octanol/phosphate buffered saline, pH 7.4, pH 7.4. The class given is physicochemical.

Description for LogD determinations: LogD(PBS) determinations were performed in 96 well microtitre plates using a miniaturised “shake-flask” method. […] The plates were then capped and mixed vigorously for 1 hour on a microtitre plate shaker, after which they were left to stand, allowing the PBS and octanol phases to separate. The PBS layer was analysed by reverse phase HPLC with mass spectrometric detection, using single ion monitoring of the [M+H]^+ species.
Where AUCstd and AUCpbs are the peak areas from the standard and test ion chromatograms respectively.

The term IC50 denotes the point on the concentration scale where inhibition reaches its midpoint. A word on the Ki: it is a dissociation constant, usually derived from enzyme kinetics or from competition with a known ligand. As usually defined, the logD is lipophilicity at a set pH, counting ionised and neutral species. Regarding `CO[C@H]1CN(C(=O)[C@@H](NC(=O)c2ccc(N3CCN(C)CC3)cc2)C2CCCC2)[C@@H]2C(=O)CO[C@H]12`, the IC50 with human osteoclasts was 52 nM. Besides, the “Human Plasma Stability % rem. @ 1 h” value in data set [1] turned out to be 93.6%. Besides, the Ki at cathepsin K stood at 1.8 nM. In “LogD determinations”, this molecule came in with a pH-dependent lipophilicity (logD) at 1 h of 1.36.

As to `CCN1CCN(c2ccc(C(=O)N[C@@H](CC(C)C)C(=O)N3C[C@H](OC)[C@H]4OCC(=O)[C@H]43)cc2)CC1` [Example 5, 4-(4-ethylpiperazin-1-yl)-N—((S)-1-((3aS,6S,6aS)-6-methoxy-3-oxodihydro-2H-furo[3,2-b]pyrrol-4(5H,6H,6aH)-yl)-4-methyl-1-oxopentan-2-yl)benzamide], the inhibition at 1 µM with human osteoclasts was in the range of 63 to 88%. Further, in data set [1], the “Human Plasma Stability % rem. @ 1 h” value is on record as 96%. Further, at cathepsin K, the Ki came to 5.8 nM. Besides, in “LogD determinations”, the logD at 1 h is over 0.8 and the “LogD pH 7.4” value is reported as 1.05.

`CO[C@H]1CN(C(=O)[C@H](CC(C)C)NC(=O)c2ccc(N3CCN(C)CC3)cc2)[C@@H]2C(=O)CO[C@H]12` [Example 1, N—((S)-1-((3aS,6S,6aS)-6-methoxy-3-oxodihydro-2H-furo[3,2-b]pyrrol-4(5H,6H,6aH)-yl)-4-methyl-1-oxopentan-2-yl)-4-(4-methylpiperazin-1-yl)benzamide]: in the data set on human osteoclasts, the inhibition at 1 µM was 63 to 88%. The “Human Plasma Stability % rem. @ 1 h” value in data set [1] is 96%. Moreover, the Ki at cathepsin K turned out to be 5.6 nM. Also, in “LogD determinations”, the logD at 1 h is over 0.8 and the “LogD pH 7.4” value is on record as 1.18.

Turning to `CCN1CCN(c2ccc(C(=O)N[C@@H](CC(C)C)C(=O)N3C[C@@H](OC)[C@H]4OCC(=O)[C@H]43)cc2)CC1` [Example 7, 4-(4-ethylpiperazin-1-yl)-N—((S)-1-((3aS,6R,6aS)-6-methoxy-3-oxodihydro-2H-furo[3,2-b]pyrrol-4(5H,6H,6aH)-yl)-4-methyl-1-oxopentan-2-yl)benzamide], the inhibition at 1 µM with human osteoclasts lay within 63 to 88%. In addition, the “Human Plasma Stability % rem. @ 1 h” value in data set [1] is reported as 93%. Moreover, at cathepsin K, the inhibition constant (Ki) is 9.9 nM. For the same molecule, in the data set “LogD determinations”, the logD at 1 h is over 0.8 and the “LogD pH 7.4” value was 0.89.

For the molecule `CO[C@@H]1CN(C(=O)[C@H](CC(C)(C)C)NC(=O)c2ccc(N3CCN(C(C)C)CC3)cc2)[C@@H]2C(=O)CO[C@@H]21` [Example 22, 4-(4-isopropylpiperazin-1-yl)-N—((S)-1-((3aS,6R,6aS)-6-methoxy-3-oxodihydro-2H-furo[3,2-b]pyrrol-4(5H,6H,6aH)-yl)-4,4-dimethyl-1-oxopentan-2-yl)benzamide], the inhibition at 1 µM in the data set on human osteoclasts is 63 to 88%. Besides, in data set [1], the “Human Plasma Stability % rem. @ 1 h” value is recorded as 91%. In addition, the Ki on cathepsin K was found to be 8.4 nM. In “LogD determinations”, the logD at 1 h is over 0.8 and the “LogD pH 7.4” value is recorded as 1.2.

Take `COCCN1CCN(c2ccc(C(=O)N[C@@H](CC(C)C)C(=O)N3C[C@@H](O)[C@H]4OCC(=O)[C@H]43)cc2)CC1` [Example 26, N—((S)-1-((3aS,6R,6aS)-6-hydroxy-3-oxodihydro-2H-furo[3,2-b]pyrrol-4(5H,6H,6aH)-yl)-4-methyl-1-oxopentan-2-yl)-4-(4-(2-methoxyethyl)piperazin-1-yl)benzamide]: the inhibition at 1 µM in the data set with human osteoclasts is 25 to 54%. The “Human Plasma Stability % rem. @ 1 h” value in data set [1] was found to be 95%. The Ki on cathepsin K was found to be 8.1 nM. Further, the “LogD pH 7.4” value in the data set “LogD determinations” came to 0.23.

For `CO[C@H]1CN(C(=O)[C@H](CC(C)(C)C)NC(=O)c2ccc(N3CCN(C)CC3)cc2)[C@@H]2C(=O)CO[C@H]12` [Example 2, N—((S)-1-((3aS,6S,6aS)-6-methoxy-3-oxodihydro-2H-furo[3,2-b]pyrrol-4(5H,6H,6aH)-yl)-4,4-dimethyl-1-oxopentan-2-yl)-4-(4-methylpiperazin-1-yl)benzamide], the inhibition at 1 µM in the data set on human osteoclasts lay in the range of 63 to 88%. Further, in data set [1], the “Human Plasma Stability % rem. @ 1 h” value is recorded as 93%. Further, the Ki at cathepsin K was 6.3 nM. In the data set “LogD determinations”, the logD at 1 h is over 0.8 and the “LogD pH 7.4” value is 1.00.

With `CO[C@@H]1CN(C(=O)[C@H](CC(C)(C)C)NC(=O)c2ccc(N3CCN(C)CC3)cc2)[C@@H]2C(=O)CO[C@@H]21` [Example 4, N—((S)-1-((3aS,6R,6aS)-6-methoxy-3-oxodihydro-2H-furo[3,2-b]pyrrol-4(5H,6H,6aH)-yl)-4,4-dimethyl-1-oxopentan-2-yl)-4-(4-methylpiperazin-1-yl)benzamide], in the data set on human osteoclasts, the inhibition at 1 µM is 63 to 88%. The “Human Plasma Stability % rem. @ 1 h” value in data set [1] is 89%. Also, at cathepsin K, the Ki stood at 5.6 nM. In addition, in “LogD determinations”, the logD at 1 h is over 0.8 and the “LogD pH 7.4” value was found to be 0.84.

Take `COCCN1CCN(c2ccc(C(=O)N[C@@H](CC(C)C)C(=O)N3C[C@H](O)[C@H]4OCC(=O)[C@H]43)cc2)CC1` [Example 25, N—((S)-1-((3aS,6S,6aS)-6-hydroxy-3-oxodihydro-2H-furo[3,2-b]pyrrol-4(5H,6H,6aH)-yl)-4-methyl-1-oxopentan-2-yl)-4-(4-(2-methoxyethyl)piperazin-1-yl)benzamide]: the inhibition at 1 µM in the data set on human osteoclasts lay within 25 to 54%. Further, the “Human Plasma Stability % rem. @ 1 h” value in data set [1] came to 92%. For the same molecule, the Ki on cathepsin K is 6.9 nM. Further, in the data set “LogD determinations”, the “LogD pH 7.4” value worked out at 0.56.

As to `COCCN1CCN(c2ccc(C(=O)N[C@@H](CC(C)C)C(=O)N3C[C@H](OC)[C@H]4OCC(=O)[C@H]43)cc2)CC1` [Example 27, N—((S)-1-((3aS,6S,6aS)-6-methoxy-3-oxodihydro-2H-furo[3,2-b]pyrrol-4(5H,6H,6aH)-yl)-4-methyl-1-oxopentan-2-yl)-4-(4-(2-methoxyethyl)piperazin-1-yl)benzamide], the inhibition at 1 µM in the data set with human osteoclasts fell in the range of 63 to 88%. In data set [1], the “Human Plasma Stability % rem. @ 1 h” value was 99%. The Ki at cathepsin K was 6.3 nM. In “LogD determinations”, the logD at 1 h was over 0.8 and the “LogD pH 7.4” value is given as 1.23.

Turning to `CCN1CCN(c2ccc(C(=O)N[C@H](C(=O)N3C[C@@H](OC)[C@H]4OCC(=O)[C@H]43)C3CCCC3)cc2)CC1`, the IC50 in the data set with human osteoclasts was determined as 231 nM. Besides, the “Human Plasma Stability % rem. @ 1 h” value in data set [1] stood at 90.7%. Besides, the Ki at cathepsin K came to 3.4 nM. In “LogD determinations”, this molecule gave a logD at 1 h of 0.95.

Take `CCCN1CCC(c2ccc(C(=O)N[C@@H](CC(C)(C)C)C(=O)N3C[C@@H](OC)[C@H]4OCC(=O)[C@H]43)cc2)CC1` [Example 38, N—((S)-1-((3aS,6R,6aS)-6-methoxy-3-oxodihydro-2H-furo[3,2-b]pyrrol-4(5H,6H,6aH)-yl)-4,4-dimethyl-1-oxopentan-2-yl)-4-(1-propylpiperidin-4-yl)benzamide]: in the data set on human osteoclasts, the inhibition at 1 µM fell in the range of 63 to 88%. Also, the “Human Plasma Stability % rem. @ 1 h” value in data set [1] was found to be 99%. For the same molecule, the Ki at cathepsin K is 8.2 nM. Moreover, in the data set “LogD determinations”, the logD at 1 h is over 0.8 and the “LogD pH 7.4” value is 1.12.

For `CO[C@@H]1CN(C(=O)[C@@H](NC(=O)c2ccc(N3CCN(C)CC3)cc2)C2CCCC2)[C@@H]2C(=O)CO[C@@H]21`, in the data set on human osteoclasts, the half-maximal inhibitory concentration (IC50) was determined as 637 nM. Also, the “Human Plasma Stability % rem. @ 1 h” value in data set [1] came to 91.8%. Besides, at cathepsin K, the Ki was 4.9 nM. The molecule further gave a logD at 1 h in “LogD determinations” of 0.75.

The values are drawn from patent publication US7803803B2, “Tetrahydrofuro[3,2-B] pyrrol-3-ones as cathepsin K inhibitors” (Amura Therapeutics Limited, priority 2007, dated 2010).
